Source: the OPERA property sets (Mansouri et al. 2018)

Details: for log10 BCF / log10 biotransformation half-life (days): fish

| SMILES | boiling point | melting point | further results |
| --- | --- | --- | --- |
| C=CCc1cc(OC)c2c(c1OC)OCO2 | 294 °C | 29.5 °C | – |
| CN(C)C(CSS(=O)(=O)c1ccccc1)CSS(=O)(=O)c1ccccc1 | – | 83.5 °C | – |
| CC(C)=CC=O | 134 °C | – | – |
| O=S(=O)(Cl)c1ccc(F)cc1 | – | 30 °C | – |
| FC(F)(F)C1(F)C(F)(F)C(F)(F)C(F)(F)C(F)(F)C1(F)F | 76.3 °C | -44.7 °C | log10 vapour pressure (mmHg): 2.02 |
| CCCC1CC1 | 69.1 °C | – | – |
| COc1nc(C)nc(NC(=O)NS(=O)(=O)c2ccccc2Cl)n1 | – | 176 °C | log10 Koc (L/kg): 2.19; log10 vapour pressure (mmHg): -10.6 |
| Cc1ccc([N+](=O)[O-])cc1 | 238 °C | 51.6 °C | log10 Henry constant (atm·m³/mol): -5.25; log10 vapour pressure (mmHg): -1.8; ready biodegradability: not readily biodegradable; log10 BCF: 0.9; log10 biotransformation half-life (days): -1.01 |
| C=C(C)C(=O)Cl | 96 °C | -60 °C | – |
| O=S1CCCC1 | 236 °C | – | – |
| CCN1C(=O)NC(c2ccccc2)C1=O (stereo unspecified) | – | 94 °C | – |
| CCCCCCCC(=O)OCCCCCC | 277 °C | -30.6 °C | – |
| CCCCCCCCCCCCCCCCCCCCCCCCCCCCCCCCC | – | 72 °C | log10 biodegradation half-life (days): 2.56; log10 vapour pressure (mmHg): -10.4 |
| CC(=O)Oc1cc(C(F)(F)F)ccc1C(=O)O | – | 121 °C | – |
| O=C(O)CCC(=O)O | – | 188 °C | log10 vapour pressure (mmHg): -6.72; ready biodegradability: readily biodegradable |
| CCCCOC(=O)c1ccc(C(=O)OCCCC)c(C(=O)OCCCC)c1 | – | – | ready biodegradability: readily biodegradable |
| CCCCC(C)C(C)O (stereo unspecified) | 166 °C | – | – |
| O=C(O)C(F)(F)C(F)(F)C(F)(F)C(=O)O | – | 80 °C | – |
| Cc1ccc(C(=O)c2csc(S(N)(=O)=O)c2)cc1 | – | 176 °C | – |
| CC1c2ccccc2-c2ccccc21 | – | 46.5 °C | – |
| Nc1ccc(-c2ccc(N)cc2)cc1 | 401 °C | 120 °C | log10 Koc (L/kg): 3.46 |
| ClCCC[Si](Cl)(Cl)Cl | 182 °C | – | – |
| NC(=O)NNc1ccccc1 | – | 172 °C | – |

| SMILES | boiling point | melting point | further results |
| --- | --- | --- | --- |
| C=C[C@H]1C[N@@]2CCC1C[C@H]2c1[nH]c2ccccc2c1CCO | – | 186 °C | – |
| CC(C)C(=O)OC(=O)C(C)C | 183 °C | -53.5 °C | – |
| CCn1cc(C(=O)O)c(=O)c2cc(F)c(N3CCNC(C)C3)c(F)c21 (stereo unspecified) | – | 240 °C | – |
| CCN(CC)c1nc(Cl)nc(N(CC)CC)n1 | – | 27 °C | – |
| CNC(=O)Oc1ccc(C)c(C)c1 | – | 79.5 °C | log10 vapour pressure (mmHg): -3.24 |
| COc1cccc(OC)c1C#N | 310 °C | 119 °C | – |
| CCC(=O)OCCc1ccccc1 | 238 °C | – | – |
| O=C(NC(=O)c1c(F)cccc1F)Nc1ccc(CO/N=C(\c2ccc(Cl)cc2)C2CC2)cc1 | – | 144 °C | – |
| CC(=O)OC(OC(C)=O)c1cccc([N+](=O)[O-])c1 | – | 72 °C | – |
| CCCCCCCC(=O)Oc1c(I)cc(C#N)cc1I | – | 59.5 °C | – |
| CC(=O)c1cccc(Br)c1 | – | 7.5 °C | – |
| Brc1ccc2ncccc2c1 | 281 °C | 24 °C | – |
| Nc1cn[nH]c1 | – | 81 °C | – |
| CC(C)CCCCCCCOC(=O)c1ccccc1C(=O)OCCCCCCCC(C)C | – | -45.6 °C | log10 vapour pressure (mmHg): -6.28; ready biodegradability: readily biodegradable; log10 BCF: 1.16 |
| COc1ccc(N)cc1 | 243 °C | 57.2 °C | log10 Henry constant (atm·m³/mol): -7.18; log10 Koc (L/kg): 1.93; log10 vapour pressure (mmHg): -1.52; ready biodegradability: readily biodegradable |
| CC(=O)[C@@]1(C)CC[C@H]2[C@@H]3C=C(C)C4=CC(=O)CC[C@]4(C)[C@H]3CC[C@@]21C | – | 144 °C | – |
| CC(=O)c1cc(C)ccc1O | 210 °C | 50 °C | – |
| CN(C)CCOCCN(C)C | – | – | ready biodegradability: not readily biodegradable |
| CC1(C)C2CCC(C=O)C1C2 (stereo unspecified) | 220 °C | – | – |
| CCC[C@@H](C)S | 113 °C | -169 °C | – |
| CC(C)(C)c1cc(-c2ccccc2)cc(C(C)(C)C)c1O | – | – | ready biodegradability: not readily biodegradable; log10 BCF: 3.78; log10 biotransformation half-life (days): 1.16 |
| CC1CCCC1(C)C (stereo unspecified) | 114 °C | -21.6 °C | – |
| c1cc2c3c(c1)CCC3CCC2 (stereo unspecified) | 249 °C | 12.8 °C | – |

| SMILES | boiling point | melting point | further results |
| --- | --- | --- | --- |
| O=c1oc2ccccc2cc1O | – | 154 °C | – |
| c1cc2c3c(c1)ccc1ccc4cccc-2c4c13 | – | – | log10 biodegradation half-life (days): 2.54 |
| FC(F)(F)C(F)(Cl)C(F)(F)Cl (stereo unspecified) | 34.1 °C | – | – |
| CCNC(=O)/C=C(C)/C=C/C=C(C)/C=C/c1c(C)cc(OC)c(C)c1C | – | 180 °C | – |
| O=[N+]([O-])c1ccc(Sc2ccccc2)cc1 | – | 56 °C | – |
| C=CCC(C)(C)C | 72.5 °C | -137 °C | – |
| Nc1ccc2cc3ccc(N)cc3nc2c1 | – | 285 °C | – |
| COC(=O)c1cccc(C)c1O | 235 °C | 29 °C | – |
| O=Cc1cccc2ccccc12 | 292 °C | 33.5 °C | – |
| CNc1ccc([N+](=O)[O-])cc1 | – | 152 °C | – |
| CC(=O)C#N | 92.3 °C | – | – |
| COC(=O)C=C(Cl)C(=O)OC | 224 °C | – | – |
| CCCCCCCCC(C)C | 189 °C | -48.9 °C | log10 vapour pressure (mmHg): -0.22; log10 biotransformation half-life (days): 0.1 |
| CCCCCCCCC | 151 °C | -53.5 °C | log10 biodegradation half-life (days): 0.954; log10 vapour pressure (mmHg): 0.648; ready biodegradability: readily biodegradable; log10 biotransformation half-life (days): 0.97 |
| CC(=O)c1ccc(Cl)cc1Cl | – | 33.5 °C | – |
| O=C(O)c1ccncc1C(=O)O | – | 256 °C | – |
| CN[C@H](C)[C@@H](O)c1ccc(O)cc1 (racemic) | – | 153 °C | – |
| O=S(=O)(Sc1ccccc1)c1ccc(Cl)cc1 | – | -86.8 °C | – |
| C=CC(=C)F | 12 °C | – | – |
| CN1Cc2c(N)cccc2C(c2ccccc2)C1 (stereo unspecified) | – | 180 °C | – |
| CCOC(=O)c1ccccn1 | 243 °C | 1 °C | – |
